From PMC12142043, “Cell-based high-content approach for SARS-CoV-2 neutralization identifies unique monoclonal antibodies and PI3K pathway inhibitors” (Frontiers in Cell and Developmental Biology, 2025)
Structures can show the parent of a compound that is named as a salt. Where two headings read alike, the source gives them in different places.

Assays:
[1] = test system: SARS-CoV-2 (USA-WA1/2020) in Calu-3 cells; assay: microbe, parasite or virus in culture; assay type: cell-based; settings: for EC50: read-out: EC50 (μM) dsRNA
[2] = test system: Calu-3 cells infected with SARS-CoV-2; assay type: cell-based, human; set-up: key to Grouping with red cluster (mock control) in UMAP: *: Clusters with mock control in high-dose treatment; settings: high-dose treatment
[3] = test system: Calu-3 cells; assay: cells; settings: Homo sapiens, Calu-3, read-out: EC50 (μM) Cell count
[4] = test system: SARS-CoV-2 (USA-WA1/2020) in Calu-3 cells; assay type: cell-based; settings: Calu-3, 48 h; for dsRNA signal, AU High: high dose (10 µM); for dsRNA signal, AU Low: low dose (100 nM)
[5] = test system: Calu-3 cells; settings: for EC50: read-out: EC50 (μM) Cell count, Calu-3, DAPI-stained nuclei, above 30 μM reported as >30
[6] = […], above 30 μM reported as >30
[7] = Severe acute respiratory syndrome coronavirus 2, Calu-3, 48 h, […], above 30 μM reported as >30
[8] = fold: cell count EC50 over dsRNA EC50
[9] = listed as Flavopiridol hydrochloride

| Structure (SMILES) | Grouping with red cluster (mock control) in UMAP [2] | EC50 [3] [µM] | EC50 [1, 7] [µM] | Selectivity index [1, 8] | dsRNA signal, AU High [4] [AU] | dsRNA signal, AU Low [4] [AU] | other results |
| --- | --- | --- | --- | --- | --- | --- | --- |
| CCOc1cc2ncc(C#N)c(Nc3ccc(F)c(Cl)c3)c2cc1NC(=O)/C=C/CN(C)C [Pelitinib] | Pelitinib* | 5.88 |  |  |  |  | EC50 (μM) dsRNA [1, 6]: None |
| O=C(NC1CCNCC1)c1[nH]ncc1NC(=O)c1c(Cl)cccc1Cl [AT7519] |  | 0.646 | 1.23 | 0.525 | 23488.0 | 46607.1 |  |
| N#CCNC(=O)c1ccc(-c2ccnc(Nc3ccc(N4CCOCC4)cc3)n2)cc1 [CYT387] |  | 2.41 | 0.0276 | 87.486 | 36485.3 | 15837.3 |  |
| COc1cc([C@@H]2c3cc4c(cc3[C@H](O)[C@H]3COC(=O)[C@@H]23)OCO4)cc(OC)c1OC [AXL1717] | AXL1717* | 0.82 | 0.00332 | 246.615 | 13380.1 | 31807.4 |  |
| Cc1ccc(Nc2nccc(N(C)c3ccc4c(C)n(C)nc4c3)n2)cc1S(N)(=O)=O.Cl [Pazopanib HCl] | Pazopanib HCl* |  |  | >3.5 | 14157.8 | 9479.9 | EC50 [1, 6]: 8.64 µM; EC50 [5]: > 30 µM |
| CNC(=O)c1cc(Oc2ccc(NC(=O)Nc3ccc(Cl)c(C(F)(F)F)c3)c(F)c2)ccn1 [Regorafenib monohydrate] |  | > 30 | 6.46 | >4 | 7085.4 | 14285.8 |  |
| O=C(Nc1ncc(SCCN2CCCC2)s1)[C@]1(c2ccc(S(=O)(=O)C3CC3)cc2)C[C@H]1C1CCCCC1 [Ly2608204] | Ly2608204* |  |  | <0.69 |  |  | EC50 [1, 6]: > 30 µM; EC50 [5]: 20.9 µM |
| Cn1c(=O)c(F)c(Nc2ccc(I)cc2F)c2c(=O)n(C[C@@H](O)CO)cnc21 [TAK-733, reference compound] |  | > 30 | > 30 |  | 15107.2 | 14755.9 |  |
| O=c1c(-c2ccc(O)cc2)coc2cc(O)cc(O)c12 [Genistein, reference compound] |  | > 30 |  |  | 5526.1 | 19461.3 | EC50 (μM) dsRNA [1, 6]: None |
| CC(C)c1cc(CNc2nc(Nc3cc(C4CC4)[nH]n3)cc(N3CCN(C)CC3)n2)on1 [XL228] | XL228* | 0.0664 | 0.0745 | 0.891 | 17836.6 | 39819.2 |  |
| O=C1Nc2ccccc2/C1=C1/Nc2ccccc2C1=O [Indirubin] |  | > 30 |  |  |  |  | Selectivity index [1]: >26; EC50 ([1]; Severe acute respiratory syndrome coronavirus 2, Calu-3, 48 h): 1.14 µM |
| CC1(C)OCCn2c1nc1c(N3CCOCC3)nc(-c3cnc(N)nc3)nc12 [GDC-0084] | GDC-0084* | 1.31 | 1.5 | 0.873 |  |  |  |
| CC(=O)Nc1cccc(-n2c(=O)n(C3CC3)c(=O)c3c(Nc4ccc(I)cc4F)n(C)c(=O)c(C)c32)c1 [Trametinib] |  | > 30 | 0.398 | >75 | 36456.5 | 10541.3 |  |
| Cl.Cl.O=C(Cc1ccc(-c2ccc(OCCN3CCOCC3)cc2)cn1)NCc1ccccc1 [KX2-391 dihydrochloride] |  |  |  | 0.016 | 1685.1 | 2878.5 | EC50 [1, 6]: 8.72 µM; EC50 [5]: 0.136 µM |
| O=C1NC(=O)[C@@H](c2cn3c4c(cccc24)CCC3)[C@@H]1c1c[nH]c2ccccc12 [Tivantinib] |  | 2.21 | > 30 | <.07 | 46631.5 | 19485.6 |  |
| CN1CC[C@H](c2c(O)cc(O)c3c(=O)cc(-c4ccccc4Cl)oc23)[C@H](O)C1 [Flavopiridol HCl] | Flavopiridol HCl* | 0.364 | 11.4 | 0.032 |  |  | dsRNA signal, AU High [4, 9]: 187.1 AU; dsRNA signal, AU Low [4, 9]: 16139.6 AU |
| CN1CCN(c2ccc(OC(F)(F)F)c(Nc3ncc4c(n3)-c3c(c(C(N)=O)nn3CCO)CC4)c2)CC1 [NMS-1286937] |  | 0.0916 | 17.8 | 0.005 | 5848.8 | 38547.7 |  |
| Cc1ncc(CO)c(CO)c1O [Pyridoxine] | Pyridoxine* | > 30 | > 30 |  | 17847.0 | 29400.2 |  |
| CC[C@H](Nc1ncnc2[nH]cnc12)c1nc2cccc(F)c2c(=O)n1-c1ccccc1 [CAL-101] |  | > 30 | 0.0521 | >575 | 57616.6 | 3708.3 |  |
| C=CC(=O)N1CCC[C@@H](n2nc(-c3ccc(Oc4ccccc4)cc3)c3c(N)ncnc32)C1 [Ibrutinib] |  | > 30 | 13.7 |  | 3646.9 | 17695.2 | Effect on dsRNA / virus in dose response ([1]; Figure 5C-F): did block the virus in high concentrations; Effect on host cell viability and morphology ([5]; Figure 5C-F): significant cell toxicity |
| Cc1ccc(F)c(NC(=O)Nc2ccc(-c3cccc4[nH]nc(N)c34)cc2)c1 [Linifanib] |  | > 30 | 20.5 | >1.4 | 6252.9 | 21480.2 |  |
| CC(C)NC[C@@H](C(=O)N1CCN(c2ncnc3c2[C@H](C)C[C@H]3O)CC1)c1ccc(Cl)cc1 [GDC-0068, reference compound] |  | > 30 | > 30 |  | 10110.1 | 18551.4 |  |
| CCOC(=O)C1=C[C@]2(CC)CCCN3CCc4c(n1c1ccccc41)[C@@H]32 [Vinpocetine] |  | > 30 | 25.7 | >1 | 5212.2 | 19993.1 |  |
| COc1cc(Nc2ncc(F)c(Nc3ccc4c(n3)NC(=O)C(C)(C)O4)n2)cc(OC)c1OC [R406, reference compound] |  |  |  |  | 5357.1 | 30563.4 | EC50 (μM) dsRNA [1, 6]: None; EC50 [5]: 1.84 µM |
| Cc1cnc(Nc2ccc(OCCN3CCCC3)cc2)nc1Nc1cccc(S(=O)(=O)NC(C)(C)C)c1 [TG101348] | TG101348* | 1.61 |  |  | 3065.1 | 15118.2 | EC50 (μM) dsRNA [1, 6]: None |
| CN(c1ncccc1CNc1nc(Nc2ccc3c(c2)CC(=O)N3)ncc1C(F)(F)F)S(C)(=O)=O [PF-00562271] | PF-00562271* |  |  | 0.510 |  | 36485.5 | EC50 [1, 6]: 8.6 µM; EC50 [5]: 4.39 µM |
| COCCOc1cnc2ccn([C@H](C)c3nnc4c(F)cc(-c5cnn(C)c5)cn34)c(=O)c2c1 [AMG 337, reference compound] |  | > 30 |  |  | 6788.1 | 33845.4 | EC50 (μM) dsRNA [1, 6]: None |
